Results: publication PMC7497630, “Coibamide A Targets Sec61 to Prevent Biogenesis of Secretory and Membrane Proteins” (ACS Chemical Biology, 2020)
Where two headings read alike, the source gives them in different places. Bridge positions count the residues as written; N and C are the ends. Square brackets hold non-standard residues; d marks the D form. Peptide text beside a SMILES is read from it. * marks the point of attachment. NMe2Val = CC(C)[C@@H](C(=O)*)N(C)C; NMeI = CC[C@H](C)[C@H](NC)C(=O)O; NMeT = CN[C@H](C(=O)O)[C@@H](C)O; NMeL = CN[C@@H](CC(C)C)C(=O)O; dHiv = CC(C)[C@@H](O)C(=O)O; NMeS = CN[C@@H](CO)C(=O)O; dNMeA = CN[C@H](C)C(=O)O

What was measured:
[1] = system: MDA-MB-231 breast cancer cells; experiment: Cell viability, MTS end-point assay; type: cell-based, human; conditions: synthetic CbA, 72 h, vehicle 0.1% DMSO
Procedure: (§1) Figure 1 Cytotoxicity of synthetic and Pra-containing coibamides. (A) Structure of CbA. (B) Human MDA-MB-231 breast cancer cells were treated with increasing concentrations of synthetic CbA or vehicle (0.1% DMSO) and cell viability assessed at 72 h by an MTS end-point assay. (C) Structure of Photo-CbA. (D) Human HCT116 cells were treated with increasing concentrations of synthetic or photo-CbA in 0.1% DMSO, and cell viability assessed at 72 h by Alamar Blue assay. TEXT PRINTED IN THE PICTURE: (B) CbA: MDA-MB-231 cell line: IC50(nM): 1.6 | (D) CbA: HCT 116 cell line: IC50(nM): 29.2 | (D) Photo-CbA: HCT 116 cell line: IC50(nM): 6.5
A431, HEK293T, and HEK293FRT cells were cultured in DMEM supplemented with 10% FBS. HCT-116 cells were cultured in McCoy’s 5A media supplemented with 10% FBS. U87-MG cells were cultured in Minimum Essential Media (MEM) with 10% FBS, L-glutamine (2 mM), and 1% penicillin and streptomycin. MDA-MB-231 cells were cultured in MEM with Earl’s salts plus 1% penicillin/streptomycin and 10% FBS. All cell lines were incubated at 37 °C under 5% CO2. The activity of synthetic coibamide and photoaffinity analogues was tested in MDA-MB-231 and A549 cells after 72 h by MTS assay. […] Viability was estimated by the addition of Alamar Blue (Life Technologies) and measuring fluorescence after a further 4 h. […]

HCT116 cells = experiment: Cell viability, Alamar Blue assay; type: cell-based, human
Procedure: as §1
(§2) Figure 5 CbA mode of inhibition is specific compared to known Sec61 inhibitors. (A) Cell viability was measured by Alamar Blue assay (mean ± SD, n = 4, all cell lines assayed simultaneously) for HCT-116 cell lines isolated on the basis of CbA resistance in the presence of concentration series of indicated compounds. (B) Cell viability was measured by Alamar Blue assay (mean ± SD, n = 4, all cell lines assayed simultaneously) for HEK293FRT cells stably expressing Sec61α mutants in the presence of concentration series of indicated compounds. (C) Comparison of published NCI60 data for CbA,[3] AprA,[11] and IpoF.[33] The heat map was derived by plotting each GI50 value divided by the median GI50 for that compound. X indicates a cell line that was not tested. Closed arrowhead indicates cell lines with most notable differences across the three compounds. […]
(§3) A431, HEK293T, and HEK293FRT cells were cultured in DMEM supplemented with 10% FBS. […] Viability was estimated by the addition of Alamar Blue (Life Technologies) and measuring fluorescence after a further 4 h. […]

[2] = system: HCT116 resistant line 100-1; experiment: Cell viability, Alamar Blue, CbA-resistant line; type: cell-based, human; conditions: 72 h, n = 4 (Figure 5A), read-out: HCT116 Resistant lines IC50 (100-1)
Procedure: (§4) Figure 5 CbA mode of inhibition is specific compared to known Sec61 inhibitors. (A) Cell viability was measured by Alamar Blue assay (mean ± SD, n = 4, all cell lines assayed simultaneously) for HCT-116 cell lines isolated on the basis of CbA resistance in the presence of concentration series of indicated compounds. (B) Cell viability was measured by Alamar Blue assay (mean ± SD, n = 4, all cell lines assayed simultaneously) for HEK293FRT cells stably expressing Sec61α mutants in the presence of concentration series of indicated compounds. (C) Comparison of published NCI60 data for CbA,[3] AprA,[11] and IpoF.[33] The heat map was derived by plotting each GI50 value divided by the median GI50 for that compound. X indicates a cell line that was not tested. Closed arrowhead indicates cell lines with most notable differences across the three compounds. TEXT PRINTED IN THE PICTURE: (A) CbA: HCT116 Resistant lines IC50(nM): 24 (WT); HCT116 Resistant lines IC50(nM): 6500 (100-1); HCT116 Resistant lines IC50(nM): 7500 (100-2); HCT116 Resistant lines IC50(nM): 5800 (100-3); HCT116 Resistant lines IC50(nM): 7800 (100-4); HCT116 Resistant lines IC50(nM): 3800 (100-5) | (A) AprA: HCT116 Resistant lines IC50(nM): 80 (WT); HCT116 Resistant lines IC50(nM): >10000 (100-1); HCT116 Resistant lines IC50(nM): >10000 (100-2); HCT116 Resistant lines IC50(nM): >10000 (100-3); HCT116 Resistant lines IC50(nM): >10000 (100-4); HCT116 Resistant lines IC50(nM): >10000 (100-5) | (B) CbA: Sec61α engineered lines IC50(nM): 12 (WT); Sec61α engineered lines IC50(nM): 83 (R66I); Sec61α engineered lines IC50(nM): 20 (T86M); Sec61α engineered lines IC50(nM): 81 (S82P) | (B) AprA: Sec61α engineered lines IC50(nM): 24 (WT); Sec61α engineered lines IC50(nM): >10000 (R66I); Sec61α engineered lines IC50(nM): 2500 (T86M); Sec61α engineered lines IC50(nM): 4700 (S82P)
(§5) A431, HEK293T, and HEK293FRT cells were cultured in DMEM supplemented with 10% FBS. HCT-116 cells were cultured in McCoy’s 5A media supplemented with 10% FBS. U87-MG cells were cultured in Minimum Essential Media (MEM) with 10% FBS, L-glutamine (2 mM), and 1% penicillin and streptomycin. MDA-MB-231 cells were cultured in MEM with Earl’s salts plus 1% penicillin/streptomycin and 10% FBS. All cell lines were incubated at 37 °C under 5% CO2. The activity of synthetic coibamide and photoaffinity analogues was tested in MDA-MB-231 and A549 cells after 72 h by MTS assay. All other cell viability assays were performed by seeding PerkinElmer Viewplate-96 plates at a density of 2.5 × 10^3 cells per well. Cells were allowed 24 h to adhere and then treated with indicated concentrations of inhibitors or vehicle (0.1% DMSO) for a further 72 h. Viability was estimated by the addition of Alamar Blue (Life Technologies) and measuring fluorescence after a further 4 h. Pulse-labeling experiments were performed by seeding six-well plates with 5 × 10^5 cells per well and allowing 24 h for cells to adhere. Cells were washed twice with PBS, then exchanged into Met-Cys free media with indicated concentrations of inhibitors for 30 min. 100 μCi of PerkinElmer EXPRE^35S^35S Protein Labeling Mix was then added per well. Media wer collected, and the cells were harvested by scraping them into ice cold PBS after 30 min. Total protein was acquired by RIPA extraction from the cell pellet. Glycosylated protein was acquired by Concanavalin A purification, and secreted protein was acquired by TCA precipitation of the media. […]

[3] = system: HCT116 resistant line 100-2; experiment: Cell viability, Alamar Blue, CbA-resistant line; type: cell-based, human; conditions: 72 h, n = 4 (Figure 5A), read-out: HCT116 Resistant lines IC50 (100-2)
Procedure: as §4, §5

[4] = system: HCT116 resistant line 100-3; experiment: Cell viability, Alamar Blue, CbA-resistant line; type: cell-based, human; conditions: 72 h, n = 4 (Figure 5A), read-out: HCT116 Resistant lines IC50 (100-3)
Procedure: as §4, §5

[5] = system: HCT116 resistant line 100-4; experiment: Cell viability, Alamar Blue, CbA-resistant line; type: cell-based, human; conditions: 72 h, n = 4 (Figure 5A), read-out: HCT116 Resistant lines IC50 (100-4)
Procedure: as §4, §5

[6] = system: HCT116 resistant line 100-5; experiment: Cell viability, Alamar Blue, CbA-resistant line; type: cell-based, human; conditions: 72 h, n = 4 (Figure 5A), read-out: HCT116 Resistant lines IC50 (100-5)
Procedure: as §4, §5

[7] = biological target: HEK293FRT cells stably expressing Sec61α WT (Homo sapiens, UniProt P61619); experiment: Cell viability, Alamar Blue, Sec61α engineered lines; type: cell-based; conditions: 72 h, n = 4 (Figure 5B)
Chain of HEK293FRT cells stably expressing Sec61α WT (P61619 whole entry): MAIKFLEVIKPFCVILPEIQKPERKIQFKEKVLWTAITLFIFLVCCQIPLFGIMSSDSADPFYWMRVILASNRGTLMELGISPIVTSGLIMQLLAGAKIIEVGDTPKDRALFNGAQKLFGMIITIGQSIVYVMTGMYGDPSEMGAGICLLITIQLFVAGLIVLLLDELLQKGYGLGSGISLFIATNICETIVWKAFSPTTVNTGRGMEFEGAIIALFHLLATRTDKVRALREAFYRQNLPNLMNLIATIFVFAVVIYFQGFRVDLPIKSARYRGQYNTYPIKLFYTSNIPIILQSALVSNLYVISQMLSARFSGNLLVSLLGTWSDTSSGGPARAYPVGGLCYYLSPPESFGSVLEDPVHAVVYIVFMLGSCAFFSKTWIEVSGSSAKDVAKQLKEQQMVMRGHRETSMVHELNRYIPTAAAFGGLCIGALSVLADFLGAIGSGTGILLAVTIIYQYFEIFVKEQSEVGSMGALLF
Procedure: as §2, §3

[8] = system: A549 human lung adenocarcinoma cells; conditions: 72 h

## CC[C@H](C)[C@H]1C(=O)N[C@@H](C)C(=O)N(C)[C@@H](CC(C)C)C(=O)N[C@@H](Cc2ccc(OC)cc2)C(=O)N(C)[C@H](C)C(=O)O[C@H](C)[C@H](N(C)C(=O)[C@H](CC(C)C)N(C)C(=O)[C@H](COC)N(C)C(=O)[C@H](OC(=O)[C@H](C(C)C)N(C)C)C(C)C)C(=O)N(C)[C@@H](COC)C(=O)N1C [CbA, Coibamide A] (NMe2Val-[dHiv][NMeS](Me)[NMeL][NMeT][NMeS](Me)[NMeI]A[NMeL]Y(Me)[dNMeA]; ester 4-C)
[1]
  IC50: 1.6 nM
HCT116 cells; HCT116, 72 h, 0.1% DMSO (Figure 1D), read-out: IC50
  IC50: 29.2 nM
HCT116 cells; HCT116 WT, 72 h, mean ± SD, n = 4 (Figure 5A), read-out: HCT116 Resistant lines IC50 (WT)
  IC50: 24 nM
[2]
  IC50: 6500 nM
[3]
  IC50: 7500 nM
[4]
  IC50: 5800 nM
[5]
  IC50: 7800 nM
[6]
  IC50: 3800 nM
[7]
  IC50: 12 nM
[8]
  IC50: 2.1 ± 0.7 nM
